In patent US8299086B2, “Pyrimidine derivatives” (Actelion Pharmaceuticals Ltd., priority 2007, dated 2012):

The molecules below were run against recombinant human S1P1 receptor (Homo sapiens, UniProt P21453) (assay: GTPγS assay to determine EC50 values). Details: 35S-GTPγS binding, membranes of CHO cells expressing recombinant human S1P1 receptor.
Type: biochemical
Procedure: GTPγS assay to determine EC50 values
GTPγS binding assays are performed in 96 well microtiter plates (Nunc, 442587) in a final volume of 200 μl, using membrane preparations of CHO cells expressing recombinant human S1P1 receptor. Assay conditions are 20 mM Hepes (Fluka, 54461), 100 mM NaCl (Fluka, 71378), 5 mM MgCl2 (Fluka, 63064), 0.1% BSA (Calbiochem, 126609), 1 μM GDP (Sigma, G-7127), 2.5% DMSO (Fluka, 41644), […] ^35S-GTPγS (Amersham Biosciences, SJ1320). The pH is 7.4. Test compounds are dissolved and diluted in 100% DMSO and pre-incubated at room temperature for 30 min in 150 μl of the above assay buffer, in the absence of ^35S-GTPγS. After addition of 50 μl of ^35S-GTPγS, the assay is incubated for 1 h at rt. The assay is terminated by transfer of the reaction mixture to a Multiscreen plate (Millipore, MAHFC1H60) using a cell harvester from Packard Biosciences, and the plates are washed with ice-cold 10 mM Na2HPO4/NaH2PO4 (70%/30%), dried, sealed at the bottom and, after addition of 25 μl MicroScint20 (Packard Biosciences, order#6013621), sealed on the top. Membrane-bound ^35S-GTPγS is measured with a TopCount from Packard Biosciences.
EC50 is the concentration of agonist inducing 50% of the maximal specific ^35S-GTPγS binding. Specific binding is determined by subtracting non-specific binding from maximal binding. Maximal binding is the amount of cpm bound to the Multiscreen plate in the presence of 10 μM of S1P. Non-specific binding is the amount of binding in the absence of an agonist in the assay.

Sequence of recombinant human S1P1 receptor (P21453 whole entry): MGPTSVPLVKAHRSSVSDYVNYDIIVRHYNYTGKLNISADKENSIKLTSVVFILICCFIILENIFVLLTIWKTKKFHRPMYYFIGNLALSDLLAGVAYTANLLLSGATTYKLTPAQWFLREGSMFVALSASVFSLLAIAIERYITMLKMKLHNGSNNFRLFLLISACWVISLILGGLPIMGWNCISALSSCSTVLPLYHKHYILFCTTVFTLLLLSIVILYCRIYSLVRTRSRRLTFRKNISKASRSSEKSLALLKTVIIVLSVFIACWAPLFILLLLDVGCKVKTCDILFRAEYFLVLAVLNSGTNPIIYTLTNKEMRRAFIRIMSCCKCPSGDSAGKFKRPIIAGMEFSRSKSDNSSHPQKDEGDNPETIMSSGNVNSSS

SMILES | EC50
CCN(CC)c1nc(C)cc(-c2nc(-c3ccc(CC(=O)N4CCC[C@H]4C(=O)O)cc3)no2)n1 [Example 132] | > 10000 nM

Same assay, conditions: 35S-GTPγS binding, membranes of CHO cells expressing recombinant human S1P1 receptor, pH 7.4

SMILES | EC50
CCNc1nc(C)cc(-c2nc(-c3cc(C)c(OCC(O)CNC(=O)CO)c(C)c3)no2)n1 (racemic) [Example 4, rac-N-(3-{4-[5-(2-Ethylamino-6-methyl-pyrimidin-4-yl)-[1,2,4]oxadiazol-3-yl]-2,6-dimethyl-phenoxy}-2-hydroxy-propyl)-2-hydroxy-acetamide] | 0.46 nM
Cc1cc(-c2nc(-c3cc(C)c(OCC(O)CNC(=O)CO)c(C)c3)no2)nc(NC(C)C)n1 (racemic) [Example 7, rac-N-(3-{4-[5-(2-Isopropylamino-6-methyl-pyrimidin-4-yl)-[1,2,4]oxadiazol-3-yl]-2,6-dimethyl-phenoxy}-2-hydroxy-propyl)-2-hydroxy-acetamide] | 0.88 nM
CCCOc1nc(C)cc(-c2nc(-c3cc(C)c(OCC(O)CNC(=O)CO)c(C)c3)no2)n1 (racemic) [Example 14, rac-N-(3-{4-[5-(6-Methyl-2-propoxy-pyrimidin-4-yl)-[1,2,4]oxadiazol-3-yl]-2,6-dimethyl-phenoxy}-2-hydroxy-propyl)-2-hydroxy-acetamide] | 26 nM
Cc1cc(-c2nc(-c3cc(C)c(OCC(O)CO)c(C)c3)no2)nc(NC(C)C)n1 (racemic) [Example 19, rac-3-{4-[5-(2-Isopropylamino-6-methyl-pyrimidin-4-yl)-[1,2,4]oxadiazol-3-yl]-2,6-dimethyl-phenoxy}-propane-1,2-diol] | 2.27 nM
Cc1cc(-c2nc(-c3ccc(C(O)CN)cc3)no2)nc(NC(C)C)n1 (racemic) [Example 144, rac-2-Amino-1-{4-[5-(2-isopropylamino-6-methyl-pyrimidin-4-yl)-[1,2,4]oxadiazol-3-yl]-phenyl}-ethanol] | 80.3 nM
Cc1cc(-c2nc(-c3ccc(CC(O)CO)cc3)no2)nc(NC(C)C)n1 (racemic) [Example 149, rac-3-{4-[5-(2-Isopropylamino-6-methyl-pyrimidin-4-yl)-[1,2,4]oxadiazol-3-yl]-phenyl}-propane-1,2-diol] | 25 nM
CCc1cc(-c2noc(-c3cc(C)nc(NCC(C)C)n3)n2)cc(C)c1OC[C@@H](O)CNC(=O)CO [Example 2, N—((S)-3-{2-Ethyl-4-[5-(2-isobutylamino-6-methyl-pyrimidin-4-yl)-[1,2,4]oxadiazol-3-yl]-6-methyl-phenoxy}-2-hydroxy-propyl)-2-hydroxy-acetamide] | 1.2 nM
CCc1cc(-c2noc(-c3cc(C)nc(NC4CC4)n3)n2)cc(C)c1OC[C@@H](O)CNC(=O)CO [Example 31, N—((S)-3-{4-[5-(2-cyclopropylamino-6-methyl-pyrimidin-4-yl)-[1,2,4]oxadiazol-3-yl]-2-ethyl-6-methyl-phenoxy}-2-hydroxy-propyl)-2-hydroxy-acetamide] | 0.17 nM
CCc1cc(-c2noc(-c3cc(CC(C)C)nc(NC)n3)n2)cc(C)c1OC[C@@H](O)CNC(=O)CO [Example 35, N—((S)-3-{2-ethyl-4-[5-(6-isobutyl-2-methylamino-pyrimidin-4-yl)-[1,2,4]oxadiazol-3-yl]-6-methyl-phenoxy}-2-hydroxy-propyl)-2-hydroxy-acetamide] | 1.37 nM
CCOc1nc(CC)cc(-c2nc(-c3cc(C)c(OC[C@@H](O)CNC(=O)CO)c(CC)c3)no2)n1 [Example 41, N—((S)-3-{4-[5-(2-ethoxy-6-ethyl-pyrimidin-4-yl)-[1,2,4]oxadiazol-3-yl]-2-ethyl-6-methyl-phenoxy}-2-hydroxy-propyl)-2-hydroxy-acetamide] | 4.5 nM
CCc1cc(-c2noc(-c3cc(CC(C)C)nc(OC)n3)n2)cc(C)c1OC[C@@H](O)CNC(=O)CO [Example 43, N—((S)-3-{2-ethyl-4-[5-(6-isobutyl-2-methoxy-pyrimidin-4-yl)-[1,2,4]oxadiazol-3-yl]-6-methyl-phenoxy}-2-hydroxy-propyl)-2-hydroxy-acetamide] | 0.97 nM
Cc1cc(-c2nc(-c3cc(C)c(OC[C@@H](O)CNC(=O)CO)c(C)c3)no2)nc(OCC(C)C)n1 [Example 46] | 3.7 nM
Cc1cc(-c2nc(-c3cc(C)c(OC[C@@H](O)CNC(=O)CO)c(Cl)c3)no2)nc(OC(C)C)n1 [Example 54, N—((S)-3-{2-chloro-4-[5-(2-isopropoxy-6-methyl-pyrimidin-4-yl)-[1,2,4]oxadiazol-3-yl]-6-methyl-phenoxy}-2-hydroxy-propyl)-2-hydroxy-acetamide] | 1 nM
CCc1cc(-c2noc(-c3cc(C)nc(NC4CC4)n3)n2)cc(C)c1OC[C@@H](O)CO [Example 63, (S)-3-{4-[5-(2-cyclopropylamino-6-methyl-pyrimidin-4-yl)-[1,2,4]oxadiazol-3-yl]-2-ethyl-6-methyl-phenoxy}-propane-1,2-diol] | 0.25 nM
COc1cc(-c2noc(-c3cc(C)nc(NC(C)C)n3)n2)cc(C)c1OC[C@@H](O)CO [Example 78, (S)-3-{4-[5-(2-isopropylamino-6-methyl-pyrimidin-4-yl)-[1,2,4]oxadiazol-3-yl]-2-methoxy-6-methyl-phenoxy}-propane-1,2-diol] | 5.8 nM
Cc1cc(-c2nc(-c3cc(C)c(OC[C@@H](O)CO)c(Cl)c3)no2)nc(OC(C)C)n1 [Example 81, (S)-3-{2-chloro-4-[5-(2-isopropoxy-6-methyl-pyrimidin-4-yl)-[1,2,4]oxadiazol-3-yl]-6-methyl-phenoxy}-propane-1,2-diol] | 7.4 nM
CCc1cc(-c2nc(-c3cc(C)nc(N(C)CC(C)C)n3)no2)cc(C)c1OC[C@@H](O)CNC(=O)CO [Example 86, (S)—N-[3-(2-Ethyl-4-{3-[2-(isobutyl-methyl-amino)-6-methyl-pyrimidin-4-yl]-[1,2,4]oxadiazol-5-yl}-6-methyl-phenoxy)-2-hydroxy-propyl]-2-hydroxy-acetamide] | 5.7 nM
CCc1cc(-c2nnc(-c3cc(C)nc(OC(C)C)n3)o2)cc(C)c1OC[C@@H](O)CNC(=O)CO [Example 89] | 39.4 nM
CCc1cc(-c2nnc(-c3cc(C)nc(OCC(C)C)n3)s2)cc(C)c1OC[C@@H](O)CO [Example 99] | 3730 nM
CCc1cc(-c2noc(-c3cc(C)nc(N(CC)CC)n3)n2)cc(C)c1OC(CO)CO [Example 100, 2-{4-[5-(2-Diethylamino-6-methyl-pyrimidin-4-yl)-[1,2,4]oxadiazol-3-yl]-2-ethyl-6-methyl-phenoxy}-propane-1,3-diol] | 5.1 nM
CCc1cc(-c2noc(-c3cc(C)nc(N(CC)CC)n3)n2)cc(C)c1OCCNCCO [Example 103] | 72.1 nM
CCc1cc(-c2noc(-c3cc(C)nc(N(CC)CC)n3)n2)cc(C)c1OCCN1CCC(C(=O)O)C1 (stereo not shown) [Example 109] | 8.4 nM
CCc1cc(-c2noc(-c3cc(C)nc(N(CC)CC)n3)n2)cc(C)c1OCCNC(=O)CN [Example 112] | 12.5 nM
CCc1cc(-c2noc(-c3cc(C)nc(N(CC)CC)n3)n2)cc(C)c1OC[C@@H](O)CNS(=O)(=O)CC [Example 117] | 22.3 nM
CCc1cc(-c2noc(-c3cc(C)nc(N(CC)CC)n3)n2)cc(C)c1OC[C@@H](O)CNCCC(=O)O [Example 126, 3-((S)-3-{4-[5-(2-diethylamino-6-methyl-pyrimidin-4-yl)-[1,2,4]oxadiazol-3-yl]-2-ethyl-6-methyl-phenoxy}-2-hydroxy-propylamino)-propionic acid] | 1.4 nM
CCN(CC)c1nc(C)cc(-c2nc(-c3ccc(CCNS(C)(=O)=O)cc3)no2)n1 [Example 128, N-(2-{4-[5-(2-Diethylamino-6-methyl-pyrimidin-4-yl)-[1,2,4]oxadiazol-3-yl]-phenyl}-ethyl)-methanesulfonamide] | 74.4 nM
CCN(CC)c1nc(C)cc(-c2nc(-c3ccc(CC(=O)N4CC(C(=O)O)C4)cc3)no2)n1 [Example 131] | 44.6 nM
CCc1cc(-c2noc(-c3cc(C)nc(NC(C)C)n3)n2)cc(C)c1CCC(=O)NCCC(=O)O [Example 134] | 2 nM
CCc1cc(-c2noc(-c3cc(C)nc(NC(C)C)n3)n2)cc(C)c1CCC(=O)NCC(O)CO (stereo not shown) [Example 140] | 12.6 nM
Cc1cc(-c2nc(-c3ccc(CC(O)CNCCO)cc3)no2)nc(NC(C)C)n1 (stereo not shown) [Example 154] | 331 nM
